Active and inactive are the calls of the source. No cut-off for these calls is given here.
Key:
[1] = biological target: Vasopressin V1a receptor (Homo sapiens, UniProt P37288); assay: Binding affinity to vasopressin V1a receptor
[2] = biological target: Vasopressin V1a receptor (Rattus norvegicus) (UniProt P30560); assay: Displacement of [3H]AVP from vasopressin V1a receptor in rat liver membrane at 50 uM by competitive displacement assay; format: cell membranes
[3] = biological target: T1, Vasopressin V1a receptor (Rattus norvegicus, UniProt P30560); assay: Displacement of [3H]AVP from vasopressin V1a receptor in rat liver membrane by competitive displacement assay; format: cell membranes
[4] = biological target: Vasopressin V1a receptor (Rattus norvegicus) (UniProt P30560); assay: Displacement of [3H]AVP from vasopressin V1a receptor in rat liver membrane at 25 uM by competitive displacement assay; format: cell membranes
[5] = biological target: T1, Vasopressin V1a receptor; assay: Displacement of [3H]AVP from vasopressin V1a receptor in rat liver membrane; format: cell membranes

T1 sequence (P30560 whole entry): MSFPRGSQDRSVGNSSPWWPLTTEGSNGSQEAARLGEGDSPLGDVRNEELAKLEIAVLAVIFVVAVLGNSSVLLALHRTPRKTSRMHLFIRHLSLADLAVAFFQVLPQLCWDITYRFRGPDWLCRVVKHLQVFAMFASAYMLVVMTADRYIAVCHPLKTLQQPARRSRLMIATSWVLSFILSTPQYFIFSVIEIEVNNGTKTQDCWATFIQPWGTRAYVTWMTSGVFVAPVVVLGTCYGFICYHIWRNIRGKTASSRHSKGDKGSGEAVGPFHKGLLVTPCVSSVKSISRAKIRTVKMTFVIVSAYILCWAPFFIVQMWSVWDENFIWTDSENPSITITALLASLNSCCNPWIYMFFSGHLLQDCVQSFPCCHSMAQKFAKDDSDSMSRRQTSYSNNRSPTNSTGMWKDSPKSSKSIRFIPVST
Chain of Vasopressin V1a receptor (Rattus norvegicus) (P30560 whole entry, looked up): as the sequence (P30560 whole entry) above
Chain of Vasopressin V1a receptor (Homo sapiens, UniProt P37288) (P37288 whole entry): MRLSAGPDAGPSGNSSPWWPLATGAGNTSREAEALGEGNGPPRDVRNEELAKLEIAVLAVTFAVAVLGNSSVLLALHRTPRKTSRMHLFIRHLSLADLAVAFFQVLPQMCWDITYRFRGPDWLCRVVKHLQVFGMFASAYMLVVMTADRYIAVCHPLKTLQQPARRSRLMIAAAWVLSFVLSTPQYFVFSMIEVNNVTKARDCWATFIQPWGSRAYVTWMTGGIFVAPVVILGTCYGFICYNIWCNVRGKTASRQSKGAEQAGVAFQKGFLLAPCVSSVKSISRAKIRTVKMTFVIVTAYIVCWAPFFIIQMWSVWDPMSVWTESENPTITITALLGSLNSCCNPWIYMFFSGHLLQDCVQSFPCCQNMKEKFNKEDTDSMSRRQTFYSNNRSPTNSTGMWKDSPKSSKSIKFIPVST

| inhibition [2] | Ki [3] | inhibition [4] | IC50 [5] | Ki [5] | Structure (SMILES) | Ki [1] |
| --- | --- | --- | --- | --- | --- | --- |
|  |  |  |  |  | CC(=O)NCCCOc1ccc(C(=O)N2CCC(N3C(=O)CCc4ccccc43)CC2)cc1 | 0.35 µM |
| Active | 53 µM | Active | 125 µM | 41 µM | C=C1[C@H]2CC[C@H](CO)[C@@]23CC[C@H](C3)C1(C)C [KHUSIMOL] |  |
